Patent publication US20100305326A1, “Chemical Fragment Screening and Assembly Utilizing Common Chemistry for NMR Probe Introduction and Fragment Linkage” (Marquette University, priority 2009, published 2010)

Test system: KCNQ channel protein
Experiment: 1D 13C half filtered 1H-1H NMR NOE fragment screening
Assay type: binding, rat
Settings: example of FIG. 3; mono- or di-methylated fragment A of DMP543; KCNQ protein solution
Description: The above-described NMR fragment assembly methods may be utilized to identify ligands for the KCNQ potassium channel, which can be affinity-purified from rat brain extracts using an affinity column with ligands such as DMP543, XE991 or linopirdine, covalently attached to a resin. The KCNQ channel is a membrane-bound protein and is considered large for NMR studies. […] Indeed, such methods have been recently applied to G-protein coupled receptors by using difference spectra in order to remove potential spectral artifacts from NMR experiments from chemical fragments that penetrate the lipid layer (Assadi-Porter et al, 2008). An important variation to that procedure (and inter-ligand NOE studies, as in FIG. 1), which is employed as part of the presently disclosed methods is to chemically place a ^13C labeled methyl group as an NMR reported group (the “NMR probe”), analogous to the antenna in FIG. 1. […] These experiments can be done on a 400 MHz, 500 MHz, 600 MHz or higher field NMR spectrometer, ideally equipped with a cryoprobe (and cryocooled ^13C preamp). […]
As a control in these experiments, the measured NOE or saturation transfer signal might be of the sample (perhaps a tissue extract) that has had the protein target removed (KCNQ in this case), which could be done using an affinity column. […]

## Cc1ccnc(F)c1 [2-fluoro-4-methylpyridine]
  NOE signal between 13CH3 group of fragment A and methyl group of fragment B (binding within 5 angstroms): can show an NOE signal
